According to patent US12358921B2, “Antiviral heterocyclic compounds” (priority 2022, dated 2025):

Assays:
Assay type in all cases: cell-based
hMPV A2 TN/94-49 [1] = test: HMPV antiviral assay Method 1 (LLC-MK2 cells, ATP-Lite); details: hMPV A2 TN/94-49, LLC-MK2 cells
Procedure, shortened: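 LLC-MK2 cells infected in suspension with hMPV A2 TN/94-49 at MOI 0.005, 5,000 cells/well, in serum-free OptiMEM with 2 μg/mL TPCK-trypsin (final) and CaCl2; compounds in duplicate, 10 points, 2 μM top, 2.5-fold dilutions. After 7 days at 37 °C, cell health by ATP-Lite luminescence; EC50 by four-parameter fit.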

[2] = system: HUMAN RSV-A (“LONG” STRAIN); test: RSV-A assay (CPE, ATPlite) in Hep-2 cells; details: human respiratory syncytial virus, 120 h, MOI 0.1, 5-day incubation
Procedure, shortened: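 Hep-2 cells (8,000/well) given 2-fold serial compound dilutions in duplicate, then infected with RSV-A Long strain at MOI 0.1. After 5 days, virus-induced cytopathic effect quantified as cellular ATP by ATPlite luminescence, against virus-only and uninfected controls; EC50 reported in ranges.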

hMPV A2 TN/94-49 [3] = test: HMPV antiviral assay Method 2 (LLC-MK2 cells with CP-100-356, ATP-Lite); details: hMPV A2 TN/94-49, LLC-MK2 cells, 4 μM CP-100-356, Method 2
Procedure, shortened: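 LLC-MK2 cells infected in suspension with hMPV A2 TN/94-49 at MOI 0.16, in serum-free OptiMEM with final 2 μg/mL TPCK-trypsin and 2 μM CP-100-356 (P-gp inhibitor). Compounds tested in duplicate, top 200 nM, 2.5-fold, 10 points; 7 days at 37 °C. ATP-Lite cell health normalised to controls; EC50 by four-parameter fit.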

Compound	EC50 (hMPV A2 TN/94-49 [1]) [µM]	EC50 [2] [µM]	EC50 (hMPV A2 TN/94-49 [3]) [µM]
COc1cc(C(=O)NC[C@](O)(c2cc3c(c(-c4ccc(F)c(F)c4C)n2)OC[C@]3(C)C(N)=O)C2CC2)cc2cn(C3CC3)nc12 [Example 70]	< 0.5	< 0.2	< 0.2
C[C@]1(C(N)=O)COc2c1cc([C@@](O)(CNC(=O)c1cc(OC3CC3)c3nn(C4(F)CC4)cc3c1)c1ccccc1)nc2-c1cccc(Cl)c1Cl [Example 266]	< 0.5	< 0.2	< 0.2
C[C@@H](O)COc1cc(C(=O)NC[C@](O)(c2cc3c(c(-c4ccc(F)c(Cl)c4F)n2)OC[C@]3(C)C(N)=O)C2CC2)cc2cn(C3CC3)nc12 [Example 38]	> 0.5	< 0.2	< 0.2
Cc1nc2c(OC3CC3)cc(C(=O)NC[C@@](O)(c3ccccc3)c3cc4c(c(-c5ccc(F)c(Cl)c5Cl)n3)OC[C@]4(C)C(N)=O)cc2o1 [Example 271]	< 0.5	< 0.2	< 0.2
COc1cc(C(=O)NC[C@@](O)(c2ccccc2)c2cc3c(c(-c4ccc(F)c(F)c4Cl)n2)OC[C@]3(C)C(N)=O)cc2cn(C(F)F)nc12 [Example 213]	< 0.5	< 0.2	< 0.2
COc1cc(C(=O)NC[C@@](O)(c2ccccc2)c2cc3c(c(-c4cc(C(F)F)c(F)cc4F)n2)OC[C@]3(C)C(N)=O)cc2cn(C3(F)CC3)nc12 [Example 298]	< 0.5	< 0.2	< 0.2
COc1cc(C(=O)NC[C@@](O)(c2cccc(F)c2)c2cc3c(c(-c4cc(Cl)c(F)cc4F)n2)OC[C@]3(C)C(N)=O)cc2cn(C3CC3)nc12 [Example 132]	< 0.5	< 0.2	< 0.2
COc1cc(C(=O)NC[C@@](O)(c2ccccc2)c2cc3c(c(-c4cc(Cl)ccc4F)n2)OC[C@]3(C)C(N)=O)cc2cc(C3CC3)nn12 [Example 146]	< 0.5	< 0.2	< 0.2
COc1cc(C(=O)NC[C@](O)(c2cc3c(c(-c4ccc(F)c(C)c4Cl)n2)OC[C@]3(C)C(N)=O)C2CC2)cc2cn(C3CC3)nc12 [Example 69]	< 0.5	< 0.2	< 0.2
COc1cc(C(=O)NC[C@@](O)(c2cccc(F)c2)c2cc3c(c(-c4cccc(Cl)c4Cl)n2)OC[C@]3(C)C(N)=O)cc2cn(C3(F)CC3)nc12 [Example 291]	< 0.5	< 0.2	< 0.2
C[C@]1(C(N)=O)COc2c1cc([C@@](O)(CNC(=O)c1ccc3nc(C4CC4)oc3c1)c1cccc(F)c1)nc2-c1ccc2c(c1Cl)OC(F)(F)O2 [Example 287]	< 0.5	< 0.2	< 0.2
COc1cc(C(=O)NC[C@@](O)(c2cccc(F)c2)c2cc3c(c(-c4cc(C(F)(F)F)c(F)cc4F)n2)OC[C@]3(C)C(N)=O)cc2cn(C3CC3)nc12 [Example 295]	< 0.5	< 0.2	< 0.2
COc1cc(C(=O)NC[C@@](O)(c2ccccc2)c2cc3c(c(-c4cc(F)c(F)cc4F)n2)OC[C@]3(C)C(N)=O)cc2cn(C3CC3)nc12 [Example 171]	< 0.5	< 0.2	< 0.2
COc1cc(C(=O)NC[C@@](O)(c2ccccc2)c2cc3c(c(-c4ccc(F)c(Cl)c4Cl)n2)OC[C@]3(C)C(N)=O)cc2cn(C(F)F)nc12 [Example 258]	< 0.5	< 0.2	< 0.2
COc1cc(C(=O)NC[C@@](O)(c2ccccc2)c2cc3c(c(-c4cc(Cl)c(F)cc4F)n2)OC[C@]3(C)C(N)=O)cc2oc(C3CC3)nc12 [Example 85]	< 0.5	–	< 0.2
Cc1cnc2c(OC(F)F)cc(C(=O)NC[C@@](O)(c3ccccc3)c3cc4c(c(-c5cc(Cl)c(F)cc5F)n3)OC[C@]4(C)C(N)=O)cc2c1 [Example 183]	< 0.5	< 0.2	< 0.2
COc1ccc([C@](O)(CNC(=O)c2cc(OC)c3nn(C4CC4)cc3c2)c2cc3c(c(-c4cc(Cl)c(F)cc4F)n2)OC[C@]3(C)C(N)=O)cc1 [Example 165]	< 0.5	< 0.2	< 0.2

Compound	EC50 (hMPV A2 TN/94-49 [1]) [µM]	EC50 [2] [µM]	EC50 (hMPV A2 TN/94-49 [3]) [µM]
COc1cc(C(=O)NC[C@@](O)(c2ccccc2)c2cc3c(c(-c4cccc(Cl)c4Cl)n2)OC[C@]3(C)C(N)=O)cc2cn(C3(F)CC3)nc12 [Example 262]	< 0.5	< 0.2	< 0.2
COc1cc(C(=O)NC[C@@](O)(c2ccccc2)c2cc3c(c(-c4ccc(F)c(Cl)c4Cl)n2)OC[C@]3(C)C(N)=O)cc2oc(C)nc12 [Example 277]	< 0.5	< 0.2	< 0.2
COc1cc(C(=O)NC[C@@](O)(c2ccccc2)c2cc3c(c(-c4cc(C(F)F)c(F)cc4F)n2)OC[C@]3(C)C(N)=O)cc2oc(C3CC3)nc12 [Example 299]	< 0.5	< 0.2	< 0.2
COc1cc(C(=O)NCC(O)(c2cc3c(c(-c4cc(Cl)c(F)cc4F)n2)OC[C@]3(C)C(N)=O)c2cc(C(F)F)cs2)cc2cn(C3CC3)nc12 (stereo partly shown) [Example 468]	> 0.5	< 0.2	< 0.2
COc1cc(C(=O)NC[C@@](O)(c2ccc(F)cc2)c2cc3c(c(-c4cc(Cl)c(F)cc4F)n2)OC[C@]3(C)C(N)=O)cc2cn(C3CC3)nc12 [Example 12]	< 0.5	< 0.2	< 0.2
COc1ccc([C@](O)(CNC(=O)c2cc(OC)c3nn(C4(F)CC4)cc3c2)c2cc3c(c(-c4cc(Cl)c(F)cc4F)n2)OC[C@]3(C)C(N)=O)cc1 [Example 166]	< 0.5	< 0.2	< 0.2
COc1cc(C(=O)NC[C@@](O)(c2ccccc2)c2cc3c(c(-c4cc(Cl)c(F)cc4F)n2)OC[C@]3(C)C(N)=O)cc2cc(C(F)F)nnc12 [Example 186]	> 0.5	< 0.2	< 0.2
C[C@]1(C(N)=O)COc2c1cc([C@@](O)(CNC(=O)c1cc(OC3CC3)n3nc(C4CC4)cc3c1)C1CC1)nc2-c1cc(Cl)c(F)cc1F [Example 4]	< 0.5	< 0.2	< 0.2
COc1cc(C(=O)NC[C@@](O)(c2ccccc2)c2cc3c(c(-c4ccc(F)c(Cl)c4Cl)n2)OC[C@]3(C)C(N)=O)cc2cn(C3(F)CC3)nc12 [Example 259]	< 0.5	< 0.2	< 0.2
CCc1cc(-c2nc([C@@](O)(CNC(=O)c3cc(OC)c4nn(C5CC5)cc4c3)C3CC3)cc3c2OC[C@]3(C)C(N)=O)ccc1F [Example 71]	> 0.5	< 0.2	> 0.2
[2H]C([2H])([2H])c1cc2cc(C(=O)NC[C@](O)(c3cc4c(c(-c5cc(Cl)c(F)cc5F)n3)OC[C@]4(C)C(N)=O)C3CC3)cc(OC)c2nc1C([2H])([2H])[2H] [Example 29]	< 0.5	< 0.2	–
COc1cc(C(=O)NC[C@@](O)(c2ccc(F)cc2)c2cc3c(c(-c4ccc(F)c(Cl)c4Cl)n2)OC[C@]3(C)C(N)=O)cc2cn(C(F)F)nc12 [Example 42]	< 0.5	< 0.2	–
COc1cc(C(=O)NC[C@@](O)(c2ccccc2)c2cc3c(c(-c4cc(C(F)(F)F)ccc4F)n2)OC[C@]3(C)C(N)=O)cc2cc(C3CC3)nn12 [Example 149]	< 0.5	< 0.2	–
[2H]C([2H])([2H])c1nc2c(OC)cc(C(=O)NC[C@@](O)(c3cccc(OC)c3)c3cc4c(c(-c5cc(Cl)c(F)cc5F)n3)OC[C@]4(C)C(N)=O)cc2s1 [Example 163]	< 0.5	< 0.2	–
COc1cc(C(=O)NC[C@](O)(c2cc3c(c(-c4ccc5ccsc5c4)n2)OC[C@]3(C)C(N)=O)C2CC2)cc2cn(C3CC3)nc12 [Example 48]	> 0.5	< 0.2	–
COc1cc(C(=O)NC[C@@](O)(c2ccccc2)c2cc3c(c(-c4cc(Cl)c(F)cc4F)n2)OC[C@]3(C)C(N)=O)cc2cc(C)cnc12 [Example 80]	< 0.5	< 0.2	–
C[C@]1(C(N)=O)COc2c1cc([C@@](O)(CNC(=O)c1cc(OC(F)F)c3nn(C4CC4)cc3c1)C1CC1)nc2-c1ccc(F)c(Cl)c1F [Example 40]	< 0.5	< 0.2	–
